Experimental data from patent US9834571B2, “Compounds for inhibiting cell proliferation in EGFR-driven cancers” (ARIAD Pharmaceuticals, Inc., priority 2012, dated 2017).
Like-named read-outs stand apart in the source and are kept apart here.

Key:
[1] = molecular target: T1, BaF3 cells expressing the target EGFR mutations (Homo sapiens, UniProt P00533, T790M/L858R, cells depend on it); test: Antiproliferative activity (MTT) against BaF3 cells expressing the target EGFR mutations; assay type: cell-based; details: BAF3 EGFR L858R-T790M PURO POOL cells, read-out: IC50, BAF3 EGFR L858R-T790M PURO POOL
T1 construct: IC50, BAF3 EGFR L858R-T790M PURO POOL; other: BAF3 EGFR L858R-T790M PURO POOL cells, MTT; IC50, BAF3 EGFR L858R-T790M PURO POOL; other: BAF3 EGFR L858R-T790M PURO POOL cells; MTT
Procedure, shortened: (§1)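 In this screen, MTT reduction reported on proliferation of BaF3 cells dependent on mutated EGFR and of matched BaF3 cells expressing wildtype receptor.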

[2] = molecular target: T2, BaF3 cells expressing the target EGFR mutations (Homo sapiens, UniProt P00533, T790M, cells depend on it, form not given); test: as above; assay type: cell-based; details: BAF3 EGFR DEL T790M PURO POOL cells, read-out: IC50, BAF3 EGFR DEL T790M PURO POOL
T2 construct: IC50, BAF3 EGFR DEL T790M PURO POOL; other: BAF3 EGFR DEL T790M PURO POOL cells, MTT; other: BAF3 EGFR DEL T790M PURO POOL cells; MTT
T2 sequence (P00533 with tags, fused parts or gaps DEL746-750/T790M, form open): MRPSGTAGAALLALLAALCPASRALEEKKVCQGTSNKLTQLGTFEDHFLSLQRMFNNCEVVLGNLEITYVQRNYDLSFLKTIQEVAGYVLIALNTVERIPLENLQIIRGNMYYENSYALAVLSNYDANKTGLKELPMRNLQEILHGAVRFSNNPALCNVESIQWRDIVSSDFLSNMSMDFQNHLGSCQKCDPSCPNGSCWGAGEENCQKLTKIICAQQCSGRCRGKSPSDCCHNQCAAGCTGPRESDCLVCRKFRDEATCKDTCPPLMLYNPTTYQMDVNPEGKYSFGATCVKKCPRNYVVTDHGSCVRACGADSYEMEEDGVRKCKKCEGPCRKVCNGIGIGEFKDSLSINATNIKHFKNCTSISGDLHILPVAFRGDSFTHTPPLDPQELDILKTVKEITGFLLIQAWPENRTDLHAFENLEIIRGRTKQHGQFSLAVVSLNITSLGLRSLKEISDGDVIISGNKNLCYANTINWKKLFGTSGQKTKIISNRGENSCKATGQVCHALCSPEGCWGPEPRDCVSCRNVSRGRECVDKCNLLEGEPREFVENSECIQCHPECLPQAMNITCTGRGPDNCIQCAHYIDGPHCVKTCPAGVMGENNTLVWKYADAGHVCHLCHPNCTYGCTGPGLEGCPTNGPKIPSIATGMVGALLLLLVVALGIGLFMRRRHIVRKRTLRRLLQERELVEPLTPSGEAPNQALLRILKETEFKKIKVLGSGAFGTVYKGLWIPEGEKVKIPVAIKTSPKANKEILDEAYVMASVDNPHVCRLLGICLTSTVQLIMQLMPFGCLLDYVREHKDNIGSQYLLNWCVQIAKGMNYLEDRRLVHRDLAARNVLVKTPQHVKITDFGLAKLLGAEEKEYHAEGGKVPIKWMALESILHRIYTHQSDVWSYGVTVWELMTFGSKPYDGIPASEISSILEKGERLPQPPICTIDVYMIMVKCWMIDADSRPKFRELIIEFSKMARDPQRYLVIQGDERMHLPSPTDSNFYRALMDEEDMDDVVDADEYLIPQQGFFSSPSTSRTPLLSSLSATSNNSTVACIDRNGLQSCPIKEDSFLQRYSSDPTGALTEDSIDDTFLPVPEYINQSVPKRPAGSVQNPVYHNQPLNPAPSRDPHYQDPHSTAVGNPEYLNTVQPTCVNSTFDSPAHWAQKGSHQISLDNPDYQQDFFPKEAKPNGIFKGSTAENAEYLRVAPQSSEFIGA
Procedure, shortened: as §1

[3] = molecular target: EGFR L858R (Homo sapiens, UniProt P00533, L858R); test: Kinase inhibitory activity against EGFR bearing the L858R mutation; assay type: biochemical; details: 10 μM ATP, read-out: IC50 for kinase inhibition, EGFR L858R
Sequence of EGFR L858R (P00533 25-1210 L858R): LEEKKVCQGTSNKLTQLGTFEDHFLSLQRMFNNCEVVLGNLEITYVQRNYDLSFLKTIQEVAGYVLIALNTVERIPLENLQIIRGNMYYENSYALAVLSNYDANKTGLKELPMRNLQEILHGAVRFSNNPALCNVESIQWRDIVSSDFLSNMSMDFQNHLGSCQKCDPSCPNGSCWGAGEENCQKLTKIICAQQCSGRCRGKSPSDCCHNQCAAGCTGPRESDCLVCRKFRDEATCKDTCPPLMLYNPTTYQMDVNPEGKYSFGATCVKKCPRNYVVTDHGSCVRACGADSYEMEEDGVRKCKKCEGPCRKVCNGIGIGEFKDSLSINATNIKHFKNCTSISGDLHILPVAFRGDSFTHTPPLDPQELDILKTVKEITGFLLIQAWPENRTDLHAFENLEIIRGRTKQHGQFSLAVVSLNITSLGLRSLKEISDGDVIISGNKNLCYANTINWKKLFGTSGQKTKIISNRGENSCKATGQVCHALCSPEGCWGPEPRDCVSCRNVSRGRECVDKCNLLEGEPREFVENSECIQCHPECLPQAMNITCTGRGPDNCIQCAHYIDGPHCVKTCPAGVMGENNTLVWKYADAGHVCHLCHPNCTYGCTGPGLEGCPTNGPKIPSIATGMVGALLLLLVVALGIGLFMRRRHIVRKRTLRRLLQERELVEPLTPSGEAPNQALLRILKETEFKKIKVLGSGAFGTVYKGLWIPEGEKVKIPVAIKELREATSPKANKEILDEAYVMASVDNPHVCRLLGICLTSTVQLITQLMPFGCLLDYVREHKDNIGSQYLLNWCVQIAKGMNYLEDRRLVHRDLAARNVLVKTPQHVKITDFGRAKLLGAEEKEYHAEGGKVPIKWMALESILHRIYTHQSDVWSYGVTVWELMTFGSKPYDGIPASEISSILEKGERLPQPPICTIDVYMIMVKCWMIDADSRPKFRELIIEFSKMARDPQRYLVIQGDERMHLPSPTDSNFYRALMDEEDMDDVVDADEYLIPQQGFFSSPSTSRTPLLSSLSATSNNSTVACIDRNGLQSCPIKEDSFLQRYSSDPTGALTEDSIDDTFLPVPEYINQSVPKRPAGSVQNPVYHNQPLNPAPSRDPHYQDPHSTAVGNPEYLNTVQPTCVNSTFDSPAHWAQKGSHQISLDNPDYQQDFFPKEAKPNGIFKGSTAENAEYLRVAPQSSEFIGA
Procedure, shortened: (§2)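 ATP was held at 10 μM while inhibition was measured across a 10-point series capped at 3 μM, single replicates.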

[4] = molecular target: human EGFR (native sequence) (Homo sapiens, UniProt P00533); test: Kinase inhibitory activity against human EGFR (native sequence); assay type: biochemical; details: 10 μM ATP, read-out: IC50 for kinase inhibition, EGFR
Sequence of human EGFR (native sequence) (P00533 25-1210): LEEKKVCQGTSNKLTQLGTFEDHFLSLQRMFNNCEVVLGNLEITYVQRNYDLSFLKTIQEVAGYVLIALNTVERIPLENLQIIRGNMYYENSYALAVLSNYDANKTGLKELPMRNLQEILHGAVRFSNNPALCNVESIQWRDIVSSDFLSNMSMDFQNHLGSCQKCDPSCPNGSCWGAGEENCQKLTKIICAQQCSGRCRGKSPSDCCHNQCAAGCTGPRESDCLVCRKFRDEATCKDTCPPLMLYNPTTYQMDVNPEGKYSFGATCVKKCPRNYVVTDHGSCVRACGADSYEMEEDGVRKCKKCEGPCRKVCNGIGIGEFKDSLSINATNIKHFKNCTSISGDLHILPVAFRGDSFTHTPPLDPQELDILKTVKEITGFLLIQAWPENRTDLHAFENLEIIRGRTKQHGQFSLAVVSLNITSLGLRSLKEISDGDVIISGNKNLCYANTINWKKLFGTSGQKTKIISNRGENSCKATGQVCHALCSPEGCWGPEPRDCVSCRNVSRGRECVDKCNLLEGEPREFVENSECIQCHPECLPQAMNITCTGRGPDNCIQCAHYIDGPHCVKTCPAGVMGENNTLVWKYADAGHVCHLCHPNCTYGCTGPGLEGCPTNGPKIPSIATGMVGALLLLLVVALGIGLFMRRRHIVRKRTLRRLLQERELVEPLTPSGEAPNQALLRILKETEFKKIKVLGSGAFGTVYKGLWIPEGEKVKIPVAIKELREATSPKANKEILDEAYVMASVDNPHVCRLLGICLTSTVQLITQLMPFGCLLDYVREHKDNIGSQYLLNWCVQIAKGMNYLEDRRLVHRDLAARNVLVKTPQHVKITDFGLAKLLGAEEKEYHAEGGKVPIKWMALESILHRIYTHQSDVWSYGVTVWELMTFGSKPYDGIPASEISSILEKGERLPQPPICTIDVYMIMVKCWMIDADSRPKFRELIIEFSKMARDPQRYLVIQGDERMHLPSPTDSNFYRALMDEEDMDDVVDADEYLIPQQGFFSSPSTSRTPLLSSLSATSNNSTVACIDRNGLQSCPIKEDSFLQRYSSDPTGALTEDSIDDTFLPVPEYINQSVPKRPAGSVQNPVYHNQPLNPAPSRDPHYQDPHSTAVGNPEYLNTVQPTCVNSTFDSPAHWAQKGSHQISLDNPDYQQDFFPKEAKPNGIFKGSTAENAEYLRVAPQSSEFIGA
Procedure, shortened: as §2

[5] = molecular target: EGFR L858R/T790M (Homo sapiens, UniProt P00533, L858R/T790M); test: Kinase inhibitory activity against EGFR bearing the L858R/T790M double mutation; assay type: biochemical; details: 10 μM ATP, read-out: IC50 for kinase inhibition, EGFR L858R T790M
Sequence of EGFR L858R/T790M (P00533 25-1210 T790M/L858R): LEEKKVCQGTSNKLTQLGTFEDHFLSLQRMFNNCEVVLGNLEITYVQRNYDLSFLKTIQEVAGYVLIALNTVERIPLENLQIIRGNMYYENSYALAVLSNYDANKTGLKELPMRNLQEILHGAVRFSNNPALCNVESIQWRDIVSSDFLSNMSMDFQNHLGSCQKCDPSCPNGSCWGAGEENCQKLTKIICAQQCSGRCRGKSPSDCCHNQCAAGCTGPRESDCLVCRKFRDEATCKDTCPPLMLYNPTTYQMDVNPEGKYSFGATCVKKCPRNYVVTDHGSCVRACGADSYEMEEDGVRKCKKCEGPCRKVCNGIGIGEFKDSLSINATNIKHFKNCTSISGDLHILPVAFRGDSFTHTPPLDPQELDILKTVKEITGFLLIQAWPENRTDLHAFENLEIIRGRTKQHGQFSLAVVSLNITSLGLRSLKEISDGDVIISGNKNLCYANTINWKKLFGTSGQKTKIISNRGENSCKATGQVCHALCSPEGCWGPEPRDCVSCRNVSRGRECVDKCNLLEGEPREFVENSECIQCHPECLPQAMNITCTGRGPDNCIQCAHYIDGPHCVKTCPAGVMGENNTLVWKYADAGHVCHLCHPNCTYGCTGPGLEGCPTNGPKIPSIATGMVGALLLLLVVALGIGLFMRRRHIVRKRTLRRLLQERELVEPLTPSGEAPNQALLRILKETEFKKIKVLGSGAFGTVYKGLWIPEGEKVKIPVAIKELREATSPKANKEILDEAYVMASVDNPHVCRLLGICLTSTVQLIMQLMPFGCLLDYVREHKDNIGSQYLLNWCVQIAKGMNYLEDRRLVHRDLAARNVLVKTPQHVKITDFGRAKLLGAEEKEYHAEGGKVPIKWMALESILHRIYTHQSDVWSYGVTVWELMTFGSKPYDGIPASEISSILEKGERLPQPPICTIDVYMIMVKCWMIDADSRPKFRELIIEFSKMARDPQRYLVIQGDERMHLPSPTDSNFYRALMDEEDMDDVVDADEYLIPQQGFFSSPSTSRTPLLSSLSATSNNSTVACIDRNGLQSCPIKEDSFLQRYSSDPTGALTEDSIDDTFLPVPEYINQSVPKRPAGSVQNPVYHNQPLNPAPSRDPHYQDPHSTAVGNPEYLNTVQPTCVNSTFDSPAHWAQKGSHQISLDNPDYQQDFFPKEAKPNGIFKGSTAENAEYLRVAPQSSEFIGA
Procedure, shortened: as §2

[6] = system: BaF3 cells expressing wildtype EGFR; test: Antiproliferative activity (MTT) against control BaF3 cells expressing wildtype EGFR; assay type: cell-based; details: Mus musculus
Procedure, shortened: as §1

[7] = 10 pt curves, 3 μM top concentration
[8] = EGFR L858R/T790M double mutation

Row | Compound | GI50 [1] | GI50 [2] | IC50 [3, 7] | IC50 [4, 7] | IC50 [5, 7] | IC50 ([3]; EGFR L858R) | IC50 ([4]; human EGFR native sequence) | IC50 [5, 8] | IC50 ([6]; BAF3 parental cells) | IC50 ([6]; BAF3 PARENTAL cells (control))
1 | C=CC(=O)Nc1ccc(OC)c(Nc2ncc(Cl)c(Nc3ccc(OCCOC)cc3P(C)(C)=O)n2)c1 [Example 86, N-(3-((5-chloro-4-((2-(dimethylphosphoryl)-4-(2-methoxyethoxy)phenyl)amino)pyrimidin-2-yl)amino)-4-methoxyphenyl)acrylamide] | 50 to 100 nM | < 50 nM |  |  |  | < 50 nM | 50 to 100 nM | < 50 nM |  | ≥ 250 nM
2 | C=CC(=O)Nc1cc(Nc2ncc(Cl)c(Nc3ccccc3P(C)(C)=O)n2)c(OC)cc1OCc1cccnc1 [Example 10, N-(5-((5-chloro-4-((2-(dimethylphosphoryl)phenyl)amino)pyrimidin-2-yl)amino)-4-methoxy-2-(pyridin-3-ylmethoxy)phenyl)acrylamide] | 101 to 250 nM | 50 to 100 nM |  |  |  | < 50 nM | 50 to 100 nM | < 50 nM |  | ≥ 250 nM
3 | C=C(CN1CCN(S(C)(=O)=O)CC1)C(=O)Nc1ccc(OC)c(Nc2ncc(Cl)c(Nc3ccccc3P(C)(C)=O)n2)c1 [Example 44, N-(3-((5-chloro-4-((2-(dimethylphosphoryl)phenyl)amino)pyrimidin-2-yl)amino)-4-methoxyphenyl)-2-((4-(methylsulfonyl)piperazin-1-yl)methyl)acrylamide] | < 50 nM | < 50 nM |  |  |  | < 50 nM | < 50 nM | < 50 nM |  | ≥ 250 nM
4 | C=CC(=O)Nc1cc(Nc2ncc(Cl)c(Nc3ccccc3P(C)(C)=O)n2)c(OC)cc1OC(COCC)CN(C)C (stereo not drawn) [Example 142, N-(5-((5-chloro-4-((2-(dimethylphosphoryl)phenyl)amino)pyrimidin-2-yl)amino)-2-((1-(dimethylamino)-3-ethoxypropan-2-yl)oxy)-4-methoxyphenyl)acrylamide] | < 50 nM | < 50 nM | < 50 nM | < 50 nM | < 50 nM |  |  |  | ≥ 250 nM | 
5 | C=CC(=O)Nc1ccc(OC)c(Nc2ncc(OC)c(Nc3ccccc3P(C)(C)=O)n2)c1 [Example 131, N-(3-((4-((2-(dimethylphosphoryl)phenyl)amino)-5-methoxypyrimidin-2-yl)amino)-4-methoxyphenyl)acrylamide] | 50 to 100 nM | < 50 nM | < 50 nM | 50 to 100 nM | < 50 nM |  |  |  | ≥ 250 nM | 
6 | COc1cc(N2CCOCC2)c(NC(=O)C#CCCN2CCCCC2)cc1Nc1ncc(Cl)c(Nc2ccccc2P(C)(C)=O)n1 [Example 101, N-(5-((5-chloro-4-((2-(dimethylphosphoryl)phenyl)amino)pyrimidin-2-yl)amino)-4-methoxy-2-morpholinophenyl)-5-(piperidin-1-yl)pent-2-ynamide] | < 50 nM | < 50 nM |  |  |  | < 50 nM | < 50 nM | < 50 nM |  | ≥ 250 nM
7 | C=CC(=O)Nc1cc(Nc2ncc(Cl)c(Nc3ccccc3S(=O)(=O)C(C)C)n2)c(OC)cc1C#CCN(C)C [Example 153, N-(5-((5-chloro-4-((2-(isopropylsulfonyl)phenyl)amino)pyrimidin-2-yl)amino)-2-(3-(dimethylamino)prop-1-yn-1-yl)-4-methoxyphenyl)acrylamide] | < 50 nM | < 50 nM | < 50 nM | < 50 nM | < 50 nM |  |  |  | ≥ 250 nM | 
8 | CNC(=O)/C=C\C(=O)Nc1ccc(OC)c(Nc2ncc(Cl)c(Nc3ccccc3P(C)(C)=O)n2)c1 [Example 110, N1-(3-((5-chloro-4-((2-(dimethylphosphoryl)phenyl)amino)pyrimidin-2-yl)amino)-4-methoxyphenyl)-N4-methylmaleamide] | 101 to 250 nM | < 50 nM | < 50 nM | ≥ 250 nM | < 50 nM |  |  |  | ≥ 250 nM | 
9 | C=CC(=O)Nc1cc(Nc2ncc(Cl)c(Nc3ccccc3P(C)(C)=O)n2)c(OC)cc1C#CCN1CCCC1 [Example 157, N-(5-((5-chloro-4-((2-(dimethylphosphoryl)phenyl)amino)pyrimidin-2-yl)amino)-4-methoxy-2-(3-(pyrrolidin-1-yl)prop-1-yn-1-yl)phenyl)acrylamide] | < 50 nM | < 50 nM | < 50 nM | < 50 nM | < 50 nM |  |  |  | ≥ 250 nM | 

Second part, led by results:

Row | GI50 [1] | GI50 [2] | IC50 [3, 7] | IC50 [4, 7] | IC50 [5, 7] | IC50 ([3]; EGFR L858R) | IC50 ([4]; human EGFR native sequence) | IC50 [5, 8] | Compound | IC50 ([6]; BAF3 parental cells) | IC50 ([6]; BAF3 PARENTAL cells (control))
10 | < 50 nM | < 50 nM | < 50 nM | < 50 nM | < 50 nM |  |  |  | COCC1CCCN1CCC#CC(=O)Nc1cc(Nc2ncc(Cl)c(Nc3ccccc3P(C)(C)=O)n2)c(OC)cc1N1CCOCC1 (stereo not drawn) [Example 122, N-(5-((5-chloro-4-((2-(dimethylphosphoryl)phenyl)amino)pyrimidin-2-yl)amino)-4-methoxy-2-morpholinophenyl)-5-(2-(methoxymethyl)pyrrolidin-1-yl)pent-2-ynamide] | ≥ 250 nM | 
11 | < 50 nM | < 50 nM | < 50 nM | < 50 nM | < 50 nM |  |  |  | C=CC(=O)Nc1cc(Nc2ncc(Cl)c(Nc3ccccc3P(C)(C)=O)n2)c(C)cc1C#CCN(C)C [Example 151, N-(5-((5-chloro-4-((2-(dimethylphosphoryl)phenyl)amino)pyrimidin-2-yl)amino)-2-(3-(dimethylamino)prop-1-yn-1-yl)-4-methylphenyl)acrylamide] | ≥ 250 nM | 
12 | < 50 nM | < 50 nM |  |  |  | < 50 nM | < 50 nM | < 50 nM | C=CC(=O)Nc1cc(Nc2ncc(Cl)c(Nc3ccccc3P(C)(C)=O)n2)c(OC)cc1OCCN1CCCCC1 [Example 8, N-(5-((5-chloro-4-((2-(dimethylphosphoryl)phenyl)amino)pyrimidin-2-yl)amino)-4-methoxy-2-(2-(piperidin-1-yl)ethoxy)phenyl)acrylamide] |  | ≥ 250 nM
13 | < 50 nM | < 50 nM |  |  |  | < 50 nM | < 50 nM | < 50 nM | C=CC(=O)Nc1cc(Nc2ncc(Cl)c(Nc3ccccc3P(C)(C)=O)n2)c(OC)cc1N1CCC(N2CCOCC2)CC1 [Example 70, N-(5-((5-chloro-4-((2-(dimethylphosphoryl)phenyl)amino)pyrimidin-2-yl)amino)-4-methoxy-2-(4-morpholinopiperidin-1-yl)phenyl)acrylamide] |  | ≥ 250 nM
14 | < 50 nM | < 50 nM | < 50 nM | < 50 nM | < 50 nM |  |  |  | C=CC(=O)Nc1ccc(OC(F)(F)F)c(Nc2ncc(Cl)c(Nc3ccccc3P(C)(C)=O)n2)c1 [Example 134, N-(3-((5-chloro-4-((2-(dimethylphosphoryl)phenyl)amino)pyrimidin-2-yl)amino)-4-(trifluoromethoxy)phenyl)acrylamide] | ≥ 250 nM | 
15 | < 50 nM | < 50 nM |  |  |  | < 50 nM | < 50 nM | < 50 nM | C=CC(=O)Nc1cc(Nc2ncc(Cl)c(Nc3ccccc3P(C)(C)=O)n2)c(OC)cc1O[C@H]1CCCN(C)C1 (single isomer, unassigned) [Example 16] |  | ≥ 250 nM
